For six molecules, Ki results are on record in BindingDB's records for doi:10.1021/jm0011169 (Stockholm University, 2001).

As a reminder, the Ki is a measure of affinity in units of concentration, obtained from inhibition or displacement. Read a high Ki as lower affinity.

This experiment deals with T1, Dimer of Gag-Pol polyprotein [489-587] (Human immunodeficiency virus 1, UniProt P12497).
T1 construct: 489-587
As to the kind of experiment: Protease Inhibition Assay. The note with it: pH 5; 30 °C. On the procedure:
A fluorimetric assay was used to determine the effects of the inhibitors on HIV-1 protease. This assay used an internally quenched fluorescent peptide substrate. The measurements were performed in 96-well plates with a Fluoroscan plate reader. Excitation and emission wavelengths were 355 nm and 500 nm, respectively.
In the case of `O=C(N[C@H]1c2ccccc2C[C@H]1O)[C@H](Sc1ccccc1F)[C@H](O)[C@@H](O)[C@@H](Sc1ccccc1F)C(=O)N[C@H]1c2ccccc2C[C@H]1O` [(2R,3R,4R,5R)-2,5-bis[(2-fluorophenyl)sulfanyl]-3,4-dihydroxy-N,N'-bis[(1S,2R)-2-hydroxy-2,3-dihydro-1H-inden-1-yl]hexanediamide], the inhibition constant (Ki) came out at 2.3 nM. In turn, `C=CCS[C@@H](C(=O)N[C@H]1c2ccccc2C[C@H]1O)[C@H](O)[C@@H](O)[C@@H](SCC=C)C(=O)N[C@H]1c2ccccc2C[C@H]1O` [(2R,3R,4R,5R)-3,4-dihydroxy-N,N'-bis[(1S,2R)-2-hydroxy-2,3-dihydro-1H-inden-1-yl]-2,5-bis(prop-2-en-1-ylsulfanyl)hexanediamide] gave a Ki of 16 nM. In turn, `O=C(N[C@H]1c2ccccc2C[C@H]1O)[C@H](SCc1ccccc1F)[C@H](O)[C@@H](O)[C@@H](SCc1ccccc1F)C(=O)N[C@H]1c2ccccc2C[C@H]1O` [N1,N6-Di[(2R)-hydroxy-(1S)-indanyl]-(2R,3R,4R,5R)-2,5-di(2-fluorobenzylsulfanyl)-3,4-dihydroxyhexanediamide] returned a Ki of 4.3 nM. `O=C(N[C@H]1c2ccccc2C[C@H]1O)[C@H](SCc1ccccc1)[C@H](O)[C@@H](O)[C@@H](SCc1ccccc1)C(=O)N[C@H]1c2ccccc2C[C@H]1O` [N1,N6-Di[(2R)-hydroxy-(1S)-indanyl]-(2R,3R,4R,5R)-2,5-di(benzylsulfanyl)-3,4-dihydroxyhexanediamide] showed an inhibitory constant (Ki) of 2.8 nM. For `O=C(N[C@H]1c2ccccc2C[C@H]1O)[C@H](Sc1ccccn1)[C@H](O)[C@@H](O)[C@@H](Sc1ccccn1)C(=O)N[C@H]1c2ccccc2C[C@H]1O` [N1,N6-Di[(2R)-hydroxy-(1S)-indanyl]-(2R,3R,4R,5R)-3,4-dihydroxy-2,5-di(2-pyridylsulfanyl)hexanediamide] the value was 285 nM. For `O=C(N[C@H]1c2ccccc2C[C@H]1O)[C@H](Sc1ccccc1)[C@H](O)[C@@H](O)[C@@H](Sc1ccccc1)C(=O)N[C@H]1c2ccccc2C[C@H]1O` [N1,N6-Di[(2R)-hydroxy-(1S)-indanyl]-(2R,3R,4R,5R)-3,4-dihydroxy-2,5-di(phenylsulfanyl)hexanediamide] the value was 1.8 nM.
